Laboratory results published in US20240279214A1, “ALPHA4 BETA7 INEGRIN ANTAGONISTS AND USES THEREOF” (XinThera, Inc., priority 2022, published 2024).

Biological target: T1, a4b7 integrin interaction with MadCAM-1 (Homo sapiens, UniProt P13612+P26010)
T1 construct: capture of a4b7 integrin expressing cells, RPMI8866; endogenous in cells; host or cells: RPMI8866
T1 sequence (P13612 34-1032): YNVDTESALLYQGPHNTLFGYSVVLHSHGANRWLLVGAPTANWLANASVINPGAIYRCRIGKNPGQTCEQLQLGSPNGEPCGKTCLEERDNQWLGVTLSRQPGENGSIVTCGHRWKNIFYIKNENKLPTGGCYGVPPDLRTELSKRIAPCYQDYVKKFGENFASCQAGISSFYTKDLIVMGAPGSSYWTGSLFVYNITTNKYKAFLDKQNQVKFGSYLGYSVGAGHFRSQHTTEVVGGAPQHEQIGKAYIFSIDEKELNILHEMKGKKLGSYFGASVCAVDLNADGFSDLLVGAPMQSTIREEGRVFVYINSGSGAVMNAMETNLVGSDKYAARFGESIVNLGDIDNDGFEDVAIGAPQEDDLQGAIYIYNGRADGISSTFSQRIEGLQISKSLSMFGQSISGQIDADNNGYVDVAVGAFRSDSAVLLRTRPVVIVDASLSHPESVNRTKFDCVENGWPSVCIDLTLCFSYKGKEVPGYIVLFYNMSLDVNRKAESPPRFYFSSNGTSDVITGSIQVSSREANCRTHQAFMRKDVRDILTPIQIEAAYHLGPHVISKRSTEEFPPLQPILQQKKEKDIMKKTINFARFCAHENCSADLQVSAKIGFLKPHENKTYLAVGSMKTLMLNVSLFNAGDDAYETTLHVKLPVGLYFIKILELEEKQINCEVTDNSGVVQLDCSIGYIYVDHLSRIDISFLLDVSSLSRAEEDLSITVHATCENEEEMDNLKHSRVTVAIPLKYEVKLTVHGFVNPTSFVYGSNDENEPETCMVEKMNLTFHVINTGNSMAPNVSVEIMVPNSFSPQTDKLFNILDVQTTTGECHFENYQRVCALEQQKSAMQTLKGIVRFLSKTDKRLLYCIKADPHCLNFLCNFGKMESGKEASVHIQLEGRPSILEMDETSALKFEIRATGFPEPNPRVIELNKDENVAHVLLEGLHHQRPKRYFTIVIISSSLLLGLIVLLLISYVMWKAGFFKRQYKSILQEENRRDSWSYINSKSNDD
T1 sequence (P26010 20-798): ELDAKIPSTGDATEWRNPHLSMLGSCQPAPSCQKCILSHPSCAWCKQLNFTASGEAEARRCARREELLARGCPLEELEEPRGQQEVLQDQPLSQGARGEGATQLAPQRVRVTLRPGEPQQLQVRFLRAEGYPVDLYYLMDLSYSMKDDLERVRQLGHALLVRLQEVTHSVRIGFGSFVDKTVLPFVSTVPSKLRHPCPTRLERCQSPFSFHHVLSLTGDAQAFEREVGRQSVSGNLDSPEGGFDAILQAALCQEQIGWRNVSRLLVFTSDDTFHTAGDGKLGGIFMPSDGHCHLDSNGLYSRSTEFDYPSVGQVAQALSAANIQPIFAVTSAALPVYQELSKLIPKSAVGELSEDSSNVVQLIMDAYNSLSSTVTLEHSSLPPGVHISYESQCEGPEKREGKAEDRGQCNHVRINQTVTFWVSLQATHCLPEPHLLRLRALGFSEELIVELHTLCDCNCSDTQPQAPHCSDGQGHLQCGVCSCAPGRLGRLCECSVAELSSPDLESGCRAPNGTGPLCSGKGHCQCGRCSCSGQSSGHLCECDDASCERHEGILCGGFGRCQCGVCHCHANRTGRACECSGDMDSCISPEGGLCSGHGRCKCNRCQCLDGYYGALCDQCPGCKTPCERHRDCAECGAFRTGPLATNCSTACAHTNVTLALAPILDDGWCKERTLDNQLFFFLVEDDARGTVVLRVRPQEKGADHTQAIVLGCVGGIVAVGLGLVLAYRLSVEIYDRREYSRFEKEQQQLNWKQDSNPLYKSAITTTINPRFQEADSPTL
Experiment: a4b7 Cell Capture Assay (RPMI8866 cells on MAdCAM-1 Fc coated plates)
Assay type: cell-based
Conditions: 50% human serum, 1 mM MgCl2, 1 hour incubation, CellTiter-Glo luminescence, read-out: a4B7 cell capture assay RMPI8866-MadCAM EC50
Method in brief: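 RPMI8866 cells (1.0×10^6 cells/mL) in 1 mM MgCl2, 25 mM HEPES, 50% human serum were added to plates coated with human MAdCAM-1–IgG1 Fc (1.0 μg/mL) and exposed to compound (9-point, 0.08–1000 nM, 0.1% DMSO) for 1 h at 37 °C. Bound cells were read by CellTiter-Glo luminescence. IC50 came from 4-parameter fit of normalized % inhibition.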

Row | EC50 [nM] | SMILES
1 | 59 | Cc1cc2cc(c1F)[C@H](CC(=O)O)NC(=O)[C@@H](n1cc(CCN3CC(F)C3)c(C(F)(F)F)cc1=O)c1cccc(c1)Oc1cccc(C)c1-2 (relative stereo) [Example 1, rel-2-((5S,8S)-1^4-fluoro-5-(5-(2-(3-fluoroazetidin-1-yl)ethyl)-2-oxo-4-(trifluoromethyl)pyridin-1(2H)-yl)-1^5,2^6-dimethyl-6-oxo-3-oxa-7-aza-1,4(1,3),2(1,2)-tribenzenacyclooctaphane-8-yl)acetic acid]
2 | 1.1 | Cc1cc2cc(c1F)[C@H](CC(=O)O)NC(=O)[C@@H](n1cc(CCN3CC(F)C3)c(C(F)(F)F)cc1=O)c1cc(ccc1F)Oc1cccc(C)c1-2 (relative stereo) [Example 7, [(14R*,17S)-12,19-difluoro-14-{5-[2-(3-fluoroazetidin-1-yl)ethyl]-2-oxo-4-(trifluoromethyl)pyridin-1-yl}-3,20-dimethyl-15-oxo-8-oxa-16-azatetracyclo[16.3.1.1^{9,13}.0^{2,7}]tricosa-1(21),2(7),3,5,9(23),10,12,18(22),19-nonaen-17-yl]acetic acid]
3 | 360 | Cc1cc(C2CC2)cc2c1-c1cc(c(F)c(C(F)(F)F)c1)[C@H](CC(=O)O)NC(=O)[C@@H](n1cc(CCN3CC(F)C3)c(C(F)(F)F)cc1=O)c1cccc(c1)O2 (relative stereo) [Example 10, [(14R*,17S)-5-cyclopropyl-19-fluoro-14-{5-[2-(3-fluoroazetidin-1-yl)ethyl]-2-oxo-4-(trifluoromethyl)pyridin-1-yl}-3-methyl-15-oxo-20-(trifluoromethyl)-8-oxa-16-azatetracyclo[16.3.1.1^{9,13}.0^{2,7}]tricosa-1(21),2(7),3,5,9,11,13(23),18(22),19-nonaen-17-yl]acetic acid]
4 | 28 | Cc1cccc2c1-c1cc(c(F)c(C(F)(F)F)c1)[C@H](CC(=O)O)NC(=O)[C@@H](n1cc(CCN3CC(F)C3)c(C(F)(F)F)cc1=O)c1cc(Cl)cc(c1)O2 (relative stereo) [Example 15, [(14R*,17S)-11-chloro-19-fluoro-14-{5-[2-(3-fluoroazetidin-1-yl)ethyl]-2-oxo-4-(trifluoromethyl)pyridin-1-yl}-3-methyl-15-oxo-20-(trifluoromethyl)-8-oxa-16-azatetracyclo[16.3.1.1^{9,13}.0^{2,7}]tricosa-1(22),2(7),3,5,9,11,13(23),18,20-nonaen-17-yl]acetic acid]
5 | 9.2 | Cc1cc(C)c2c(c1)Oc1cccc(c1)[C@H](n1cc(CCCN(C)C)c(C(F)(F)F)cc1=O)C(=O)N[C@@H](CC(=O)O)c1cn-2nc1C(F)(F)F (relative stereo) [Example 18, [(13S,16R*)-16-{5-[3-(dimethylamino)propyl]-2-oxo-4-(trifluoromethyl)pyridin-1-yl}-5,7-dimethyl-15-oxo-11-(trifluoromethyl)-2-oxa-9,10,14-triazatetracyclo[15.3.1.1^{9,12}.0^{3,8}]docosa-1(20),3(8),4,6,10,12(22),17(21),18-octaen-13-yl]acetic acid]
6 | 12 | Cc1cc2cc(c1F)[C@H](CC(=O)O)NC(=O)[C@@H](n1cc(CCN3CC(F)C3)c(C(F)(F)F)cc1=O)c1cc(Cl)cc(c1)Oc1cccc(C)c1-2 (single isomer, unassigned) [Example 3]
7 | 340 | Cc1cc(Cl)cc2c1-c1cc(c(F)c(C(F)(F)F)c1)[C@H](CC(=O)O)NC(=O)[C@@H](n1cc(CCN3CC(F)C3)c(C(F)(F)F)cc1=O)c1cccc(c1)O2 (single isomer, unassigned) [Example 11]
